EC50 data for 14 compounds are collected here from patent US10065928B2, “Quinolinone compound and use thereof” (Sunshine Lake Pharma Co., Ltd., priority 2014, dated 2018).

One may read the EC50 as the concentration needed to bring the measured effect to its halfway point. Lower therefore signals a more potent agent.

This test has as its system erythropoietin (EPO) production in Hep3B cells. Description: Activity in inducing erythropoietin (EPO) production in vitro, Hep3B cells, EPO ELISA. It counts as cell-based. The note with it: Homo sapiens, 24 h, EPO in supernatant by ELISA. The method, then: The activities of compounds of the invention in inducing erythropoietin (EPO) production were assessed by using human live cancer cell strain Hep3B (ATCC: American type culture collection, Manassas, Va.). Hep3B cells seeded in a 96-well plate with a density of 2.5×10^4 cells/well were cultivated overnight in DMEM culture medium (Dulbecco's Modified Eagle's Medium) at 37° C. in the presence of 10% fetal bovine serum (FBS). The next day, the supernatant liquid of culture medium was abandoned by suction, and to the residue was added fresh DMEM (containing 0.5% DMSO, 0.5% FBS) containing compound of the invention with a series of concentrations (0.31160.00 μM) or containing solvent used for comparison. The cells were cultivated at 37° C. for 24 h. The supernatant liquid was collected and the EPO concentration of the supernatant was quantified by using human EPO ELISA kit (Abcam). The activity of each compound in inducing erythropoietin (EPO) production was represented by half maximal effective concentration (EC50).
(In general: An ELISA detects its analyte on a solid surface through an enzyme-linked reagent.)
In turn, `Cn1c(=O)c(C(=O)NCC(=O)O)c(O)c2cc(Oc3ccccc3)ccc21` [Example 5, 2-(4-hydroxy-1-methyl-2-oxo-6-phenoxy-1,2-dihydroquinoline-3-carboxamido)acetic acid] came in with an EC50 of 4 µM.

`COc1cccc(Oc2ccc3c(O)c(C(=O)NCC(=O)O)c(=O)n(C)c3c2)c1` [Example 37, 2-(4-hydroxy-7-(3-methoxyphenoxy)-1-methyl-2-oxo-1,2-dihydroquinoline-3-carboxamido)acetic acid] returned an EC50 of 6.26 µM.

Take `O=C(O)CNC(=O)c1c(O)c2ccc(Oc3ccccc3)cc2n(CCC2CC2)c1=O` [Example 42, 2-(1-(cyclopropylethyl)-4-hydroxy-2-oxo-7-phenoxy-1,2-dihydroquinoline-3-carboxamido)acetic acid]: the midpoint of the response, the EC50, lay at 3.34 µM.

`Cn1c(=O)c(C(=O)NCC(=O)O)c(O)c2ccc(Oc3ccccc3F)cc21` [Example 45, 2-(7-(2-fluorophenoxy)-4-hydroxy-1-methyl-2-oxo-1,2-dihydroquinoline-3-carboxamido)acetic acid] displayed an EC50 of 6.02 µM.

In the case of `Cn1c(=O)c(C(=O)NCC(=O)O)c(O)c2ccc(Oc3cccc(F)c3)cc21` [Example 46, 2-(7-(3-fluorophenoxy)-4-hydroxy-1-methyl-2-oxo-1,2-dihydroquinoline-3-carboxamido)acetic acid], the EC50 stood at 3.61 µM.

`Cn1c(=O)c(C(=O)NCC(=O)O)c(O)c2ccc(Oc3cccc(F)c3F)cc21` [Example 14, 2-(7-(2,3-difluorophenoxy)-4-hydroxy-1-methyl-2-oxo-1,2-dihydroquinoline-3-carboxamido)acetic acid] displayed an EC50 of 10.2 µM.

For the compound `Cn1c(=O)c(C(=O)NCC(=O)O)c(O)c2ccc(Oc3c(Cl)cccc3Cl)cc21` [Example 32, 2-(7-(2,6-dichlorophenoxy)-4-hydroxy-1-methyl-2-oxo-1,2-dihydroquinoline-3-carboxamido)acetic acid], the midpoint of the response, the EC50, lay at 3.63 µM.

As for `Cn1c(=O)c(C(=O)NCC(=O)O)c(O)c2ccc(Oc3c(F)cccc3F)cc21` [Example 16, 2-(7-(2,6-difluorophenoxy)-4-hydroxy-1-methyl-2-oxo-1,2-dihydroquinoline-3-carboxamido)acetic acid], the EC50 came out at 8.83 µM.

For the compound `Cn1c(=O)c(C(=O)NCC(=O)O)c(O)c2ccc(Oc3ccccc3OC(F)(F)F)cc21` [Example 40, 2-(4-hydroxy-1-methyl-2-oxo-7-(2-(trifluoromethoxy)phenoxy)-1,2-dihydroquinoline-3-carboxamido)acetic acid], a half-maximal response (EC50) required 4.06 µM.

Turning to `Cn1c(=O)c(C(=O)NCC(=O)O)c(O)c2ccc(Oc3cc(F)cc(Cl)c3)cc21` [Example 26, 2-(7-(3-chloro-5-fluorophenoxy)-4-hydroxy-1-methyl-2-oxo-1,2-dihydroquinoline-3-carboxamido)acetic acid], the response was half-maximal at 13.5 µM (EC50).

On to `Cn1c(=O)c(C(=O)NCC(=O)O)c(O)c2ccc(Oc3cccc(F)c3Cl)cc21` [Example 24, 2-(7-(2-chloro-3-fluorophenoxy)-4-hydroxy-1-methyl-2-oxo-1,2-dihydroquinoline-3-carboxamido)acetic acid], for which the response was half-maximal at 9.53 µM (EC50).

The compound `COc1ccc(Oc2ccc3c(O)c(C(=O)NCC(=O)O)c(=O)n(C)c3c2)cc1` [Example 36, 2-(4-hydroxy-7-(4-methoxyphenoxy)-1-methyl-2-oxo-1,2-dihydroquinoline-3-carboxamido)acetic acid] showed an EC50 of 2.95 µM.

`Cn1c(=O)c(C(=O)NCC(=O)O)c(O)c2ccc(Oc3ccc(F)cc3F)cc21` [Example 15, 2-(7-(2,4-difluorophenoxy)-4-hydroxy-1-methyl-2-oxo-1,2-dihydroquinoline-3-carboxamido)acetic acid] showed an EC50 of 6.92 µM.

In turn, `Cn1c(=O)c(C(=O)NCC(=O)O)c(O)c2cc(Oc3ccc4ccccc4c3)ccc21` [Example 9, 2-(4-hydroxy-1-methyl-6-(naphthalen-2-yloxy)-2-oxo-1,2-dihydroquinoline-3-carboxamido)acetic acid] gave an EC50 of 2.52 µM.
